Measured values published in patent US20240228507A1, “GREEN SOLVENTS FOR CHEMICAL REACTIONS” (ECOLE POLYTECHNIQUE FÉDÉRALE DE LAUSANNE (EPFL), priority 2021, published 2024).

Columns and labels:
Assay type in all cases: physicochemical
[1] = Miscibility with different solvents; parameters: key: “*” indicating—not miscible; conditions: Table 1d; blank cell = miscible
[2] = Stability of DFX under basic conditions (GC-FID/GC-MS, colour change); parameters: key to Reaction (Y/N): *Reaction (Y/N) means color change compared to blank solution.; *Reaction (Y/N) means color change compared to blank solution
Experimental: To assess DFX stability under basic conditions, we tested a series of organic and inorganic bases at 80° C. and 110° C. for maximum 48 h (Table 6). Visual color change compared to a blank solution of pure DFX indicated some reactions were occurring. After 0.5 h, 24 h, 48 h of exposure, the samples were injected in GC-FID and GC-MS and the area of DFX was compared with the one in blank sample using decane as the internal standard. As a result of this experiment, we identified some potential limitations of this emerging solvent. Specifically, inorganic bases such as K2CO3, NaOH, CsCO3 led to the highest extent of degradation (maximum 21% after 48 h). Triethylamine (NEt3) caused less than 5% of degradation, but led to the formation of dark solution as well as K2CO3, NaOH, CsCO3. Probably, impurities existing in DFX (95% pure) also contribute to a color change as they could interact with bases.

[3] = Kamlet-Abboud-Taft solvatochromic parameters (dye absorption spectra); conditions: Table 1a
Text: Determination of the Kamlet-Abboud-Taft parameters was based on the absorption spectrum of two dyes (N,N-diethyl-4-nitroaniline and 4-nitroaniline) in different solvents, that allow calculating corresponding values using known procedures (P. G. Jessop, D. A. Jessop, D. Fu and L. Phan, Green Chem., 2012, 14, 1245-1259).

[4] = Stability under hydrogenation conditions
Experimental: It is important to note that, DFX was stable under hydrogenation conditions (40 bar of H2, 70° C., 24 h), thus it can be used in reactions requiring high pressure of H2, elevated temperature, and/or long reaction time, which is a very desirable property for biomass-derived solvents.
40 bar of H2, 70° C., 24 h • 2. 40 bar of H2, 250° C., 3 h

[5] = Stability under acidic conditions; conditions: 0.8M HCl
[6] = CsCO3 (base cell blank, row r16), 80° C., 0.5 h
[7] = CsCO3 (base cell blank, row r16), 80° C., 24 h
[8] = CsCO3 (base cell blank, row r16), 80° C., 48 h
[9] = CsCO3 (base cell blank, row r17), 110° C., 0.5 h
[10] = CsCO3 (base cell blank, row r17), 110° C., 24 h
[11] = CsCO3 (base cell blank, row r17), 110° C., 48 h
[12] = CsCO3, 110° C. (row r15), 0.5 h

Miscibility with Cyclohexane [1]: *
Miscibility with Hexane [1]: *
Miscibility with di-n-butyl ether [1]: *
DFX degradation [2, 6]: 1%
Reaction (Y/N) [2, 6]: Y
DFX degradation [2, 7]: 4%
Reaction (Y/N) [2, 7]: Y
DFX degradation [2, 8]: 8%
Reaction (Y/N) [2, 8]: Y
DFX degradation [2, 9]: 1%
Reaction (Y/N) [2, 9]: Y
DFX degradation [2, 10]: 7%
Reaction (Y/N) [2, 10]: Y
DFX degradation [2, 11]: 11%
Reaction (Y/N) [2, 11]: Y
DFX degradation [2, 12]: 3%
Reaction (Y/N) [2, 12]: Y
DFX degradation ([2]; CsCO3, 110° C. (row r15), 24 h): 11%
Reaction (Y/N) ([2]; CsCO3, 110° C. (row r15), 24 h): Y
DFX degradation ([2]; CsCO3, 110° C. (row r15), 48 h): 21%
Reaction (Y/N) ([2]; CsCO3, 110° C. (row r15), 48 h): Y
DFX degradation ([2]; K2CO3, 80° C., 0.5 h): 2%
Reaction (Y/N) ([2]; K2CO3, 80° C., 0.5 h): Y
DFX degradation ([2]; K2CO3, 80° C., 24 h): 3%
Reaction (Y/N) ([2]; K2CO3, 80° C., 24 h): Y
DFX degradation ([2]; K2CO3, 80° C., 48 h): 7%
Reaction (Y/N) ([2]; K2CO3, 80° C., 48 h): Y
DFX degradation ([2]; K2CO3, 110° C., 0.5 h): 2%
Reaction (Y/N) ([2]; K2CO3, 110° C., 0.5 h): Y
DFX degradation ([2]; K2CO3, 110° C., 24 h): 5%
Reaction (Y/N) ([2]; K2CO3, 110° C., 24 h): Y
DFX degradation ([2]; K2CO3, 110° C., 48 h): 13%
Reaction (Y/N) ([2]; K2CO3, 110° C., 48 h): Y
DFX degradation ([2]; KOAc, 80° C., 0.5 h): 0%
Reaction (Y/N) ([2]; KOAc, 80° C., 0.5 h): N
DFX degradation ([2]; KOAc, 80° C., 24 h): 2%
Reaction (Y/N) ([2]; KOAc, 80° C., 24 h): N
DFX degradation ([2]; KOAc, 80° C., 48 h): 3%
Reaction (Y/N) ([2]; KOAc, 80° C., 48 h): N
DFX degradation ([2]; KOAc, 110° C., 0.5 h): 1%
Reaction (Y/N) ([2]; KOAc, 110° C., 0.5 h): Y
DFX degradation ([2]; KOAc, 110° C., 24 h): 3%
Reaction (Y/N) ([2]; KOAc, 110° C., 24 h): Y
DFX degradation ([2]; KOAc, 110° C., 48 h): 5%
Reaction (Y/N) ([2]; KOAc, 110° C., 48 h): Y
DFX degradation ([2]; NEt3, 80° C., 0.5 h): 3%
Reaction (Y/N) ([2]; NEt3, 80° C., 0.5 h): Y
DFX degradation ([2]; NEt3, 80° C., 24 h): 4%
Reaction (Y/N) ([2]; NEt3, 80° C., 24 h): Y
DFX degradation ([2]; NEt3, 80° C., 48 h): 5%
Reaction (Y/N) ([2]; NEt3, 80° C., 48 h): Y
DFX degradation ([2]; NaOH, 80° C., 0.5 h): 0%
Reaction (Y/N) ([2]; NaOH, 80° C., 0.5 h): Y
DFX degradation ([2]; NaOH, 80° C., 24 h): 9%
Reaction (Y/N) ([2]; NaOH, 80° C., 24 h): Y
DFX degradation ([2]; NaOH, 80° C., 48 h): 17%
Reaction (Y/N) ([2]; NaOH, 80° C., 48 h): Y
DFX degradation ([2]; Pyridine, 80° C., 0.5 h): 0%
Reaction (Y/N) ([2]; Pyridine, 80° C., 0.5 h): N
DFX degradation ([2]; Pyridine, 80° C., 24 h): 0%
Reaction (Y/N) ([2]; Pyridine, 80° C., 24 h): N
DFX degradation ([2]; Pyridine, 80° C., 48 h): 0%
Reaction (Y/N) ([2]; Pyridine, 80° C., 48 h): N
DFX degradation ([2]; Pyridine, 110° C., 0.5 h): 0%
Reaction (Y/N) ([2]; Pyridine, 110° C., 0.5 h): N
DFX degradation ([2]; Pyridine, 110° C., 24 h): 3%
Reaction (Y/N) ([2]; Pyridine, 110° C., 24 h): Y
DFX degradation ([2]; Pyridine, 110° C., 48 h): 6%
Reaction (Y/N) ([2]; Pyridine, 110° C., 48 h): Y
DFX degradation ([2]; Triethylamine (NEt3)): less than 5%
DFX degradation, highest extent ([2]; inorganic bases K2CO3, NaOH, CsCO3, after 48 h): ≤ 21%
Kamlet-Taft Parameters Π* [3]: 0.92
stability under hydrogenation conditions ([4]; 40 bar of H2, 70° C., 24 h): remained stable
stability under hydrogenation conditions ([4]; 40 bar of H2, 250° C., 3 h): remained stable
DFX recovered ([5]; 70 to 95° C., no formaldehyde): more than 80%
DFX stable ([5]; formaldehyde added): around 90%
SMILES: C1OC[C@H]2O[C@@H]3OCO[C@@H]3[C@H]2O1 [DFX, Diformylxylose]
